The source of these data is patent US20260070887A1 (Shenzhen Zhongge Biological Technology Co., Ltd., priority 2022, published 2026).

One data set addresses KIF18A (Homo sapiens (Human), UniProt Q8NI77). The experiment in a line: KIF18A ATPase activity under tubulin stimulation (ADP-Glo assay). The data set is classed as biochemical. The settings on record: KIF18A 30 nM, ATP 150 μM, pig microtubules. (ADP-Glo turns the ADP formed in a reaction into a luminescent signal.)
The nature of the next data set: PK study in ICR mice. The data set is classed as in vivo, mouse. Particulars: plasma, route and dose not given. A digest of the protocol: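 Fasted ICR mice (3/group) dosed intravenously or by oral gavage; plasma sampled up to 24 h. Plasma levels measured by LC-MS/MS after protein precipitation. T½, AUC0-t, CL, Vss and F derived by noncompartmental analysis.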
Another data set deals with HCT116 cells. The experiment in a line: HCT116 cell anti-proliferation assay. Particulars: 6 days, Cell Titer-Glo. It counts as cell-based. How it is done:
HCT116 (ATCC, CCL-247) cells were cultured in McCoy's 5a complete medium (Gibco, 12330-031) containing 10% fetal bovine serum (Gibco, 10099-141C), 100 U penicillin and 100 μg/mL streptomycin (Gibco, 15140-122). The Promega kit Cell Titer-Glo (Promega: G7572) was used in this method for test.
HCT116 cells were cultured in T75 cell flasks (Corning, 430641) and the cells were placed in a 37° C., 5% CO2 incubator. Cells were passaged when reaching a cell density of 70%-80%, approximately twice per week. To perform the experiment, the test compounds were dissolved in DMSO to prepare a 10 mM stock solution, and the test compounds were added to the 384-well cell test plate (Corning, 3765) at the predetermined concentration (19.5 nM-[…]) using ECHO. […] cells were digested and 150 cells (60 μL medium) were seeded per well in the test plate. The 384-well plate was then centrifuged at 500 rpm for 1 minute, and then placed in a 37° C., 5% CO2 incubator for 6 days of cultivation. Six days later, the cell culture plate was equilibrated for 10 minutes at room temperature, 25 μL of Cell Titer-Glo was added to each well, and the mixture was shaken and mixed well and let stand for 5 minutes. The luminescence values for samples in various wells were read using a microplate reader in Luminescence mode.
The percentage of inhibition of cell proliferation by the test compound at each concentration was calculated by comparing with the values of the control group (0.2% DMSO). The IC50 values of the compounds were obtained by concentration-inhibition rate nonlinear regression analysis of the test compounds using GraphPad Prism 9.

Where [1] appears, read: both sexes, mouse, read-out: AUC.
Setting [2] is: both sexes, mouse, read-out: Cmax.

SMILES strings stand for the structures. Read-outs that look alike come from different tables or passages of the source.

KIF18A, sequence (Q8NI77 whole entry): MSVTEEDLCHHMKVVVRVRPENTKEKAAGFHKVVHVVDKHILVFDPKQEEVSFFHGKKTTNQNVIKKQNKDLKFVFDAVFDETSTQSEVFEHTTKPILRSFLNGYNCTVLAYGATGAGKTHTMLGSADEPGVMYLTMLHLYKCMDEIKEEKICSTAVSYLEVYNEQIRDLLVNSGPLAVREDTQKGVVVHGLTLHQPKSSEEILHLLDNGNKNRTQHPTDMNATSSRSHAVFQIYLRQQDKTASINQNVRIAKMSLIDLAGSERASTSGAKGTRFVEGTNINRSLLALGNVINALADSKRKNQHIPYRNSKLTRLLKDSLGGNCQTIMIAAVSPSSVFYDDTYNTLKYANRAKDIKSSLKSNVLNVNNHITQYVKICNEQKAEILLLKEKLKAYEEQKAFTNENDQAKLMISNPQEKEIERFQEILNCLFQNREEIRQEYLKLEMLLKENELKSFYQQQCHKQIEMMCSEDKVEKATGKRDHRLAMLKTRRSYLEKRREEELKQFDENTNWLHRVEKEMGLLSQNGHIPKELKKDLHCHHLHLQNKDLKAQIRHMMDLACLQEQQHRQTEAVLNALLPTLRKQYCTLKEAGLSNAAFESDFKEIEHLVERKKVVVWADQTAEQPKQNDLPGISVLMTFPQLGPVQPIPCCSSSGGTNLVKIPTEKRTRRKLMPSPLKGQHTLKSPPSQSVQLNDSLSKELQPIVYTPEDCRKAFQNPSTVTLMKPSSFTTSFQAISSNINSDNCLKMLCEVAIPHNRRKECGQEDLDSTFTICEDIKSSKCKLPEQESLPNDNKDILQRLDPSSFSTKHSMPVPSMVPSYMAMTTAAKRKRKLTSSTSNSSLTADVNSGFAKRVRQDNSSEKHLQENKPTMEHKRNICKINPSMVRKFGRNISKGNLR
KIF18A, sequence (P02550 whole entry partner): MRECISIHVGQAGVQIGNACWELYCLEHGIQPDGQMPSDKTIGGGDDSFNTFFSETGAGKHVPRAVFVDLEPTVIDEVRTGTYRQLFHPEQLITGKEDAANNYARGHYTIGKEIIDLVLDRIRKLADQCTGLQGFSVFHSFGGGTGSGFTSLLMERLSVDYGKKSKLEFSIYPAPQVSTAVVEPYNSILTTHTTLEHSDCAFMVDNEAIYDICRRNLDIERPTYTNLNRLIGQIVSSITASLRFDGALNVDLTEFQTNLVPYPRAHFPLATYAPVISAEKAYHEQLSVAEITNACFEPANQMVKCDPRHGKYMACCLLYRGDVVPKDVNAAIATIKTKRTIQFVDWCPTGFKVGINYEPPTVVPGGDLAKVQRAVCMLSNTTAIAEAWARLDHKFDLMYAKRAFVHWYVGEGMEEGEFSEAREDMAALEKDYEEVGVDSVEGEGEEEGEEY
KIF18A, sequence (P02554 whole entry partner): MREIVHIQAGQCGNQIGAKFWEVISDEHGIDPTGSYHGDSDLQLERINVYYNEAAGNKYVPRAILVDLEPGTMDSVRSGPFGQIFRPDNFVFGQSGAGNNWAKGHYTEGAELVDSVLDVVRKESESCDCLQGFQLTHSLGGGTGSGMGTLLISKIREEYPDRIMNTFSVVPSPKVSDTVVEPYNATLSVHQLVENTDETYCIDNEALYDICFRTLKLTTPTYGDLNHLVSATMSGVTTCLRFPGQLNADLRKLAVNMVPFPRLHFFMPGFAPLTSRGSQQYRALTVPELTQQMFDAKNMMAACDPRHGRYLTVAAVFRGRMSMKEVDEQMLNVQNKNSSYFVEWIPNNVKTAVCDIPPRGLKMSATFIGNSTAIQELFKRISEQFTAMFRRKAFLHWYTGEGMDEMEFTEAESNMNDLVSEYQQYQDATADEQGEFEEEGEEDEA

Take `N#Cc1ccc(NC(=O)c2ccc(NS(=O)(=O)CCO)cc2N2CCC3(CC2)CC3)c2cc3n(c12)CCC(F)(F)C3` [Example 379]: on KIF18A, the IC50 – broadly, the concentration that inhibits the measured activity by half – was at most 50 nM. Besides, in the data set “PK study in ICR mice”, the AUC (as a rule, concentration integrated over time) is 36456 ng·h/mL and the highest concentration (Cmax) (as a rule, the peak of the concentration-time curve) was determined as 4043 ng/mL. For the same molecule, it took 9800 nM to reach half-maximal inhibition in the data set with HCT116 cells (IC50).
Regarding `CC1(C)Cn2c(nc3c(NC(=O)c4ccc(NS(=O)(=O)CCO)cc4N4CCC(=C(F)F)CC4)cccc32)CO1` [Compound 394, 2-(4-(difluoromethylene)piperidin-1-yl)-N-(3,3-dimethyl-3,4-dihydro-1H-benzo[4,5]imidazo[2,1-c][1,4]oxazin-9-yl)-4-((2-hydroxyethyl)sulfonamido)benzamide], the IC50 on KIF18A was at most 50 nM; in the data set on HCT116 cells (Homo sapiens, HCT-116, 144 h), over 10000 nM. In the data set “PK study in ICR mice” (setting [1]), the AUC worked out at 47800 ng·h/mL. Besides, the Cmax in the data set “PK study in ICR mice” (setting [2]) was 4220 ng/mL.
On to `O=C(Nc1ccc(F)c2c1cc1n2CCOC1)c1ccc(NS(=O)(=O)CCO)cc1N1CCC(=C(F)F)CC1` [Example 321, 2-(4-(difluoromethylene)piperidin-1-yl)-N-(6-fluoro-3,4-dihydro-1H-[1,4]oxazino[4,3-a]indol-9-yl)-4-((2-hydroxyethyl)sulfonamido)benzamide], for which the IC50 against KIF18A is at most 50 nM; in the data set on HCT116 cells (Homo sapiens, HCT-116, 144 h) it was over 10000 nM. Also, the AUC in the data set “PK study in ICR mice” (setting [1]) was determined as 16000 ng·h/mL. Moreover, in “PK study in ICR mice” (setting [2]), the Cmax was 4140 ng/mL.
The like results for `CC1(C)Cn2c(cc3c(NC(=O)c4ccc(NS(=O)(=O)CCO)cc4N4CCC(=C(F)F)CC4)ccc(C#N)c32)CO1` [Compound 393, N-(6-cyano-3,3-dimethyl-3,4-dihydro-1H-[1,4]oxazino[4,3-a]indol-9-yl)-2-(4-(difluoromethylene)piperidin-1-yl)-4-((2-hydroxyethyl)sulfonamido)benzamide] were, in that order, 50 to 500 nM, over 10000 nM, 22300 ng·h/mL and 3840 ng/mL.
On the same counts, the results for `CC1Cn2c(cc3c(NC(=O)c4ccc(NS(=O)(=O)CCO)cc4N4CCC5(CC4)CC5)cccc32)C(C)O1` (single isomer, unassigned) [Compound 312-P3, N-(1,3-dimethyl-3,4-dihydro-1H-[1,4]oxazino[4,3-a]indol-9-yl)-4-((2-hydroxyethyl)sulfonamido)-2-(6-azaspiro[2.5]oct-6-yl)benzamide] are 50 to 500 nM, over 10000 nM, 32400 ng·h/mL and 2980 ng/mL.
On the same counts, the results for `CC1(C)Cn2c(nc3c(NC(=O)c4ccc(NS(=O)(=O)CCO)cc4N4CCC5(CC4)CC5)cccc32)CO1` [Compound 391, N-(3,3-dimethyl-3,4-dihydro-1H-benzo[4,5]imidazo[2,1-c][1,4]oxazin-9-yl)-4-((2-hydroxyethyl)sulfonamido)-2-(6-azaspiro[2.5]octan-6-yl)benzamide] are 50 to 500 nM, over 10000 nM, 38000 ng·h/mL and 4370 ng/mL.
For the molecule `O=C(Nc1cccc2c1cc1n2CCOC1)c1ccc(NS(=O)(=O)CCO)cc1N1CCC2(CC1)CC2` [Example 235, N-(3,4-dihydro-1H-[1, 4]oxazino[4,3-a]indol-9-yl)-4-(2-hydroxyethylsulfonamido)-2-(6-azaspiro[2.5]octan-6-yl)benzamide], the IC50 against KIF18A was at most 50 nM; in the data set with HCT116 cells (Homo sapiens, HCT-116, 144 h), over 10000 nM. Moreover, the AUC in the data set “PK study in ICR mice” (setting [1]) stood at 5980 ng·h/mL. Besides, the Cmax in “PK study in ICR mice” (setting [2]) came out at 2990 ng/mL.
